Source: PubChem BioAssay AID179 (DTP/NCI, 2004)
The source made the active and inactive calls.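 How the source made its calls: active means compounds giving half or more protection of infected cells from virus-caused growth loss, again on retest; inactive means the rest.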 Where a SMILES comes first, the peptide text is derived from it. The star is where a group is joined. Myristoyl = CCCCCCCCCCCCCC(=O)*

Test system: CEM cells HIV-1 protection, formazan growth assay
Experiment: NCI AIDS Antiviral Assay
Conditions: for IC50: measured here: growth of uninfected CEM cells
Procedure, shortened: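 Protection of CEM cells against HIV-1 measured as cell growth via soluble formazan read-out, with five concentrations tested on both infected and uninfected cells; failure to protect may reflect toxicity.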

Structure (SMILES)	outcome	EC50 [µM]	IC50 [µM]
COc1ccc2c3c([nH]c2c1[N+](=O)[O-])C(C)N(Cc1ccccc1)CC3 (stereo not drawn)	inactive	–	–
O=C(O)C(=Cc1ccc(-c2ccccc2)cc1)C(=O)O	–	> 251	15.5
CCOC(=O)c1cc(C)nc2c1c(=O)n(-c1ccccc1)c(=O)n2CCCCN1CCN(c2ncccn2)CC1	–	> 200	107
Cc1nc(C(=Nc2ccc(Br)cc2)Nn2cnnc2)no1	–	> 200	–
C=CC(C)(C)c1cc(O)c2oc3c(O)cccc3c(=O)c2c1O	–	> 151	37.2
CCc1cccc(C(C)C)c1C1C(=O)C(=O)N(c2nc3ccccc3s2)C(=O)C1=O	inactive	–	–
CN(C)c1ncnc2c1Cc1ccccc1C(=O)N2C	–	60.3	407
Cc1cc2c(=O)c3ccccc3oc2c(C#N)c1C	–	> 20	> 20
CC(C)/C(Cl)=N\OC(=O)Nc1ccc(F)c([N+](=O)[O-])c1	–	> 200	3.02
CC(C)NCC(O)COc1cccc2ccccc12 (stereo not drawn)	–	> 200	120
COc1cc2cc3c4cc(OC)c(OC)cc4cc[n+]3c(C)c2cc1OC (tested in a mixture with another compound)	–	> 93.3	4.17
CN(C)CC1CCC/C(=C\c2ccc(OC(=O)/C=C/c3ccc(Cl)cc3)cc2)C1=O (stereo not drawn)	–	> 50.1	2.19
O=C1C(Cl)C(c2ccccc2Cl)N1n1cnc2ccccc2c1=O (stereo not drawn)	–	> 14.5	> 14.5
CCOC(=O)CCc1c(C)c2ccc(O)cc2oc1=O	–	> 200	> 200
C=C(C)CCC[C@@H](C)C1CCC2(C)[C@@H]3CCC4C(C)(C)[C@@H](O)CC[C@@]45C[C@@]35CC[C@]12C (stereo partly drawn)	–	> 200	46.8
c1ccc2[nH]c(SSSSc3nc4ccccc4[nH]3)nc2c1	–	> 200	> 200
COc1cccc(N2C(=O)[C@H]3[C@H]4CC(C(C)(C)C)CC[C@H]4c4c([nH]c5ccccc45)[C@H]3C2=O)c1 (stereo partly drawn)	–	18.2	26.9
C=C(Br)C[N+]12CN3CN(CN(C3)C1)C2	–	> 200	55
COc1ccc(N2C(=O)/C(=C\c3cc(OC)c(OC)c(OC)c3)S(=O)(=O)C2c2ccccc2)cc1 (stereo not drawn)	–	> 200	41.7
N[C@@H](CSSCCO)C(=O)O	–	> 200	> 200
O=C(NNc1nc2cccnc2n2ccnc12)c1cnccn1	–	> 1	0.135
O=S(=O)(Cc1ccccc1)SCc1ccccc1	–	> 79.4	6.31

Structure (SMILES)	outcome	EC50 [µM]	IC50 [µM]
Nc1nc2c(N)cc(C(F)(F)F)cc2nc1-c1ccccc1	–	> 17	> 17
CCCCCCCCCCCCCC(=O)NCC(=O)NC(CO)C(=O)NC(CO)C(=O)NC(CCCCN)C(=O)NC(CO)C(=O)NC(CCCCN)C(=O)N1CCCC1C(=O)NC(CCCCN)C(=O)NC(CC(=O)O)C(N)=O (stereo not drawn) (Myristoyl-GSSKSKPKD-NH2; configuration not given here)	–	> 219	> 219
C=C1C(=O)O[C@H]2[C@H]3O[C@@H](C[C@@H]12)[C@](C)(O)CC[C@@H]1O[C@@]1(C)CCC[C@H]3C	–	> 200	8.13
C[N+]1(C)C/C(=C\c2ccc(O)cc2)C(=O)/C(=C/c2ccc(O)cc2)C1	–	> 77.6	56.2
C1=C(N2CCOCC2)N(c2ccccc2)c2ccccc2N=C1N1CCCC1	inactive	–	–
OC(Cc1ccc2ccccc2n1)(C(F)(F)Cl)C(F)(F)Cl	–	> 200	81.3
Cc1ccc(/C=C2/N=C([Se])N(C)C2=O)cc1	–	> 18.6	> 18.6
CN(C)c1ccc(Cc2cc3c(O)ccc(O)c3cc(Cc3ccc(N(C)C)cc3)c2=O)cc1	–	> 200	3.16
Cc1ccc(S(=O)(=O)NN=C2C(C)(C)CC2(C)C)cc1	–	> 200	> 200
CCOC(=O)Cc1csc2[n+]1C(=O)/C(=C/c1cccc(OC)c1O)S2	–	> 200	174
Cc1[nH]c(=O)[nH]c(=O)c1N(CCF)CCCl	–	> 1000	89.1
COc1ccc2cc(C(C)C(=O)N3CCOC3=O)ccc2c1 (stereo not drawn)	–	> 200	> 200
COc1ccc(N2C(=O)c3c(c4[nH]c5ccccc5c4c4ccc(C(C)(C)C)cc34)C2=O)cc1	–	> 11.5	> 11.5
COc1c2c(cc3c1OCO3)[C@]13C=C[C@H](OC)C[C@H]1N(C2)CC3O (stereo partly drawn)	–	> 126	> 126
COc1ccc(C(NS(=O)(=O)c2ccc(C)cc2)c2c(C(CBr)OC)c3ccccc3n2S(=O)(=O)c2ccccc2)cc1OC (stereo not drawn)	–	> 151	31.6
CS(=O)(=O)N(CCC#N)c1ccc(C=O)cc1	–	> 102	> 102
CC(=O)c1c2c(cc3c1CCC3)CCC2	–	> 200	> 200
Cc1cc2c(c(=O)[nH]1)C(=O)NC2=O	–	> 813	468
COC1Sc2ccccc2C(=O)N2CCCC12 (stereo not drawn)	–	> 200	> 200
Cc1cc(C)c(S(=O)(=O)N(CCCCN)OCCCN)c(C)c1	–	> 200	28.2
CCSCCCN(CCCSCC)CCCSCC	–	> 155	> 155
O=S(=O)(Cc1nc2ccccc2s1)c1nc2ccccc2s1	–	> 200	4.79

Structure (SMILES)	outcome	EC50 [µM]	IC50 [µM]
NNc1ncnc2cccc(Cl)c12	–	> 200	> 200
Cn1c(=O)c2nc(-c3ccccc3)oc2n(C)c1=O	inactive	–	–
Cc1cc(=O)n(-c2ccccc2)c(=O)n1-c1nc2ccccc2[nH]1	–	> 112	64.6
O=C(O)CN1C(=O)C(=O)c2cc([N+](=O)[O-])ccc21	–	> 200	> 200
CC(=O)NC(CS/N=N/c1nc[nH]c1C(N)=O)C(=O)O (stereo not drawn)	–	> 200	0.38
O=C1C=CC=C/C1=C1\N=C(c2ccccc2OCC(=O)c2ccc(Br)cc2)SS1	–	> 50.1	19.5
N#CC1CC(c2ccccc2)=NC1c1ccccc1 (stereo not drawn)	–	> 29.5	> 29.5
O=C1C2=Cc3ccccc3OC2(O)Oc2cc3ccccc3cc21 (stereo not drawn)	–	> 200	69.2
Oc1ccccc1/C=N/N1C(=S)N(c2ccccc2)C(=Nc2ccccc2)C1=Nc1ccccc1	–	> 20	1.29
COc1cc(Nc2cnc3cc(C(F)(F)F)ccc3n2)cc(OC)c1OC	–	> 50.1	> 50.1
NC(CCC(=O)NC(CSc1ccc([N+](=O)[O-])cc1[N+](=O)[O-])C(=O)NCC(=O)O)C(=O)O (stereo not drawn)	–	> 525	> 525
Cc1nnc(Nc2ccc(Cl)cc2)o1	–	> 200	> 200
S=C1C(CCCOCc2ccccc2)C2CCCC23CC2(CCN13)OCCS2 (stereo not drawn)	–	> 200	39.8
COc1cc(C)c2c(c1)C=C1C(=O)C(=O)C(C(C)C)=C(O)C1=CC2	inactive	–	–
Clc1ccnc2c1ccc1c(Cl)ccnc12	–	> 75.9	13.8
COC(=O)C1Cc2ccc(O)c(O)c2CN1 (stereo not drawn)	–	> 33.9	8.91
CCOC(=O)Cc1cc(=O)[nH]c(-n2[nH]c(C)c(CCO)c2=O)n1	–	> 200	> 200
C=CCOC(OCC=C)/C(Br)=C/C	inactive	–	–
CC1OC(OC2C(OC(=O)[C@]34CCC(C)(C)CC3C3=CCC5[C@@]6(C)C[C@H](O)[C@H](OC7OC(CO)C(O)C(O)C7N)[C@@](C)(C(=O)O)C6CC[C@@]5(C)C3(C)CC4)OCC(O)C2O)C(O)C(O)C1OC1OCC(O)C(O)C1O (stereo partly drawn)	–	> 123	> 123
COc1ccc2c(c1O)C1=CC(=O)CC[C@]13CCN(C)[C@H]3C2	–	> 832	661
CC1(C)CC(=O)C2C(C1)Nc1ccccc1NC2c1ccccc1[N+](=O)[O-] (stereo not drawn)	–	> 61.7	> 61.7
O=c1[nH]c2cc(O)ccc2c2cc3c(c(O)c12)OCO3	inactive	–	–

Structure (SMILES)	outcome	EC50 [µM]	IC50 [µM]
O=c1c(-c2ccc(Cl)cc2)nnc2n(Cc3ccccc3)c3ccccc3n12	–	> 200	> 200
COC(=O)C1C(C(=O)OC)C2C(=O)C3C(C(=O)OC)C(C(=O)OC)C3C(=O)C12 (stereo not drawn)	–	> 91.2	> 91.2
[N-]=[N+]=NCN1C(=O)C2C3C=CC(C2C1=O)C1C2C(=O)N(CN=[N+]=[N-])C(=O)C2C31 (stereo not drawn)	inactive	–	–
CCC(/C=C/C1OC(=O)C=CC1C)=C\C(C)C/C=C/C(C)=C/C(C)C(=O)C(C)C(O)C(C)C/C(C)=C/C(=O)O (stereo not drawn)	inactive	–	–
O=[N+]([O-])c1ccc(C2=NOC(c3ccc(Cl)cc3)N2C23CC4CC(CC(C4)C2)C3)cc1 (stereo not drawn)	–	> 200	182
COc1ccc(-c2csc3c2[N+]2(C)C=CC=C2C3N2CCCC2)cc1 (stereo not drawn)	–	> 200	8.51
COc1cccc2c1ccc1nonc12	–	> 129	> 129
c1ccc2c(c1)NC(C1OC3CCCN3C1C1Nc3ccccc3S1)S2 (stereo not drawn)	–	> 200	107
CC(=O)OC(C)(C)CCC(=O)[C@](C)(O)[C@H]1[C@H](O)C[C@@]2(C)[C@@H]3CC=C4C(C)=C(OC5OC(CO)C(O)C(O)C5O)C(=O)C[C@@H]4[C@]3(C)C(=O)C[C@]12C (stereo partly drawn)	–	> 200	> 200
O=c1[nH]c2ncccc2c(=O)n1O	–	> 200	34.7
CCC[CH2][Sn]1([CH2]CCC)[O]CC(COc2c(Cl)cc(Cl)cc2Cl)[O]1 (stereo not drawn)	–	> 3.98	1.86
COc1ccc(N=C2C(=S)N(c3ccc(OC)cc3)/C(=N/S(=O)(=O)c3ccccc3)N2c2ccccc2)cc1	–	> 20	0.389
CC1(C)CCc2cc3c(cc2O1)OCCC3O (stereo not drawn)	inactive	–	–
O=C1OC(OC/C(Br)=C(\Br)COC2OC(=O)C(Cl)=C2Cl)C(Cl)=C1Cl (stereo not drawn)	–	> 200	3.09
CC(C)=CCS(=O)c1ccccc1NC1=CC(=O)CC(C)(C)C1 (stereo not drawn)	inactive	–	–
OC(Cn1cncn1)(Cn1cncn1)c1ccc(Cl)cc1Cl	–	> 741	490
C[Si](C)(OCCS(=O)(=O)O)C1(Cc2cccc3ccccc23)S(=O)(=O)OCCOS1(=O)=O	–	> 200	107
COC(=O)C1=CC(O)CCC1c1ccc(OC)cc1 (stereo not drawn)	–	> 363	> 363
CCN(CC(COc1ccc2c(c1)[n+]([O-])nc(N)[n+]2[O-])OC(C)=O)C(C)=O (stereo not drawn)	–	> 200	14.8
